Data set [1] deals with CYP2D6 (Homo sapiens, UniProt P10635). Kind of data set: Drug-drug interaction evaluation: CYP inhibition in human liver microsomes (cocktail method). On the procedure: (§1) The cocktail method using specific probe substrates for CYP1A2, CYP2C9, CYP2C19, CYP2D6 and CYP3A was used to evaluate the inhibitory effect of the compounds on the activity of human liver microsomal cytochrome P450 isoenzymes (CYP1A2, CYP2C9, CYP2C19, CYP2D6 and CYP3A).
(§2) Human liver microsomes, probe substrates, positive control inhibitors, and reduced nicotinamide adenine dinucleotide phosphate (NADPH).
(§3) To the corresponding wells of a reaction plate, 20 µL of substrate solution was added; to blank wells, 20 µL of potassium phosphate buffer was added.
(§4) To the corresponding wells, 2 µL of test compound and positive control working solution were added; to inhibitor-free and blank wells, 2 µL of solvent was added.
(§5) Human liver microsome working solution was prepared, and 158 µL of human liver microsome working solution was added to each well of the reaction plate.
(§6) The plate was pre-incubated at 37.0°C for 10 minutes.
(§7) To start the reaction, 20 µL of NADPH cofactor working solution was added to the reaction plate.
(§8) After incubation in a 37.0°C water bath with mixing for 10 minutes, 400 µL of stop solution was added to terminate the reaction.
(§9) The sample plate was centrifuged at 4000 rpm for 20 minutes.
(§10) 200 µL of supernatant was taken and mixed with 100 µL of pure water as diluent, and the plate was shaken to mix well.
(§11) Analysis was performed by liquid chromatography-tandem mass spectrometry (LC-MS/MS).
(§12) Using the percentage of remaining activity as the ordinate and the test compound concentration as the abscissa, a non-linear regression analysis was performed with a three-parameter or four-parameter model using XL fit software to calculate the IC50 value.
(§13) y = (max)/(1 + (((x)/(IC50)))^−hillslope) [formula]
(§14) y = min + (max−min)/(1 + (((x)/(IC50)))^−hillslope) [formula]
(§15) max = maximum enzyme activity; min = minimum enzyme activity; x = concentration of test compound or positive control inhibitor; y = enzyme activity at the corresponding concentration; hillslope = slope; IC50 = half-maximal inhibitory concentration. The four-parameter equation was used when the minimum enzyme activity was within ±10%; otherwise the three-parameter equation was used.
For orientation: Liver microsomes are a subcellular fraction often used to study metabolism.

The target in data set [2] is CYP2C19 (Homo sapiens, UniProt P33261). Described as above. The protocol: as §1, §2, §3, §4, §5, §6, §7, §8, §9, §10, §11, §12, §13, §14, §15
Data set [3] has as its target CYP2C9 (Homo sapiens, UniProt P11712). The data set is described as above. On the procedure:
as §1, §2, §3, §4, §5, §6, §7, §8, §9, §10, §11, §12, §13, §14, §15

For data set [4], the target named is CYP3A4 (Homo sapiens, UniProt P08684). Described as above. On the procedure: as §1, §2, §3, §4, §5, §6, §7, §8, §9, §10, §11, §12, §13, §14, §15
The target of data set [5] is T1, CYP1A2 (Homo sapiens, UniProt P05177).
T1 sequence (P05177 1-516): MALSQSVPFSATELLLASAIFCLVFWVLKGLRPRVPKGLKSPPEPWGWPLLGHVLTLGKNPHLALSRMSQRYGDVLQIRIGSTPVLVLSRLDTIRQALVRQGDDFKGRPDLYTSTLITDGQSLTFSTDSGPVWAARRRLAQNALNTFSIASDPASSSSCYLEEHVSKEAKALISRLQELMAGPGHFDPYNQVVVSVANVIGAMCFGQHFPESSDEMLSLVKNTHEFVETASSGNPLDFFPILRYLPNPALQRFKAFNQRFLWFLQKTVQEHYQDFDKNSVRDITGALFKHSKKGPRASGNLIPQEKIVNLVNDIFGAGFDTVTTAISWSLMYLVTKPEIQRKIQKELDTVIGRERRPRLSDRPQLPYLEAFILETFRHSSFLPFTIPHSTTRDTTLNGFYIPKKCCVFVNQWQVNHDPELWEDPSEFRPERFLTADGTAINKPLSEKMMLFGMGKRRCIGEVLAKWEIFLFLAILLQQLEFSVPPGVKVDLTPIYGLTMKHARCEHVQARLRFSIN
Described as above. On the procedure:
as §1, §2, §3, §4, §5, §6, §7, §8, §9, §10, §11, §12, §13, §14, §15

Data set [6] has as its target T2, hKCNQ2/3 (Homo sapiens, UniProt O43525+O43526).
T2 construct: expressed in transfected cells; host or cells: CHO
Kind of data set: cell-based. The text has this:
Test Method 1: hKCNQ2/3 Thallium Flux Assay
Test Objective: To test the in vitro concentration-response relationship of compounds using FLIPR thallium flux assay in CHO cell lines stably expressing hKCNQ2/3.
According to the split ratio, the cells were transferred to another T-75 flask containing complete cell growth medium. Note: To maintain logarithmic growth, the cells should be kept in a subconfluent monolayer state. Based on the cell doubling time, the cells were passaged every 2-3 days.
• (1) Day 1 - Cell preparation: Cells were digested as described above, and cell density and viability were determined using a Cell Countess. The volume of the single-cell suspension was adjusted with complete cell growth medium. Then, hKCNQ2/3_CHO cells were seeded onto PDL-precoated 384-well plates at a density of approximately 20,000 cells/well (30 µL/well). The plates were then incubated overnight in a 37°C, 5% CO2 humidified air incubator. • (2) Day 2 - Compound preparation: Test compounds were diluted with dimethyl sulfoxide (DMSO) to stock concentrations and stored in a -20°C freezer. A compound addition program was set up on the ECHO liquid handler, and compounds were added to the plates using the ECHO liquid handler. Retigabine (RTG) was used as a positive control at a highest concentration of 100 µM with 3-fold serial dilutions for a total of 9 doses. Buffer containing 5 mM K^+ and 1 mM Tl^+ was added to the plates. Notes: 1) K2SO4 and Tl2SO4 were prepared in 1× chloride-free buffer. Depending on the voltage-gated potassium channel involved, the concentrations of Tl^+ and K^+ should be adjusted. Tl^+ concentration is approximately 0.5-5 mM, and K^+ concentration is approximately 5-30 mM. 2) Each 1 mM solution of K2SO4 and Tl2SO4 contains 2 mM K^+ and Tl^+; the final concentration should be calculated based on the ion concentration. 3) TlCl readily precipitates and a chloride-free buffer is required. • (3) Day 2 -Assay testing: Once the cells reached the desired confluence, the cell assay plates were removed from the incubator. Assay buffer and diluted Tl^+ dye (Molecular Devices # R8222) were prepared. The medium was discarded using a Bravo liquid handler, and 25 µL of Tl^+ dye was added to each well. After 1 hour of incubation, the cell assay plates, composite plates and FLIPR tips were placed in the FLIPR^TETRA (Molecular Devices, USA) for FLIPR detection. After setting up the tips, baseline readings were taken for 60 seconds, then 12.5 µL was added from the composite plate (3×) to the cell assay plate, and data were recorded for at least 5 minutes. • (4) Data processing: Maximum signals were generated by the FLIPR software. […] Data quality control: S/B > 2.00, Z factor > 0.50.
• (1) Day 1 - Cell preparation: Cells were digested as described above, and cell density and viability were determined using a Cell Countess. The volume of the single-cell suspension was adjusted with complete cell growth medium. Then, hKCNQ2/3_CHO cells were seeded onto PDL-precoated 384-well plates at a density of approximately 20,000 cells/well (30 µL/well). The plates were then incubated overnight in a 37°C, 5% CO2 humidified air incubator. • (2) Day 2 - Compound preparation: Test compounds were diluted with dimethyl sulfoxide (DMSO) to stock concentrations and stored in a -20°C freezer. A compound addition program was set up on the ECHO liquid handler, and compounds were added to the plates using the ECHO liquid handler. Retigabine (RTG) was used as a positive control at a highest concentration of 100 µM with 3-fold serial dilutions for a total of 9 doses. Buffer containing 5 mM K^+ and 1 mM Tl^+ was added to the plates. Notes: 1) K2SO4 and Tl2SO4 were prepared in 1× chloride-free buffer. Depending on the voltage-gated potassium channel involved, the concentrations of Tl^+ and K^+ should be adjusted. Tl^+ concentration is approximately 0.5 mM -5 mM, and K^+ concentration is approximately 5 mM -30 mM.

The test system of data set [7] is maximal electroshock-induced epilepsy model. Kind of data set: Maximal electroshock-induced epilepsy model, behavioral pharmacodynamics. The class given is in vivo. Particulars: dose 5 mg/kg, oral, one hour before electrical stimulation; male CD-1 mice. The source says: Assay Example 2: Evaluation of the behavioral pharmacodynamics of the test compounds in a maximal electroshock-induced epilepsy model
This study used behavioral tests in male CD-1 mice to investigate the effects of test compounds on acute epileptic seizures behavior induced by maximal electroshock.
Male CD-1 mice (25 to 35g) were used as the experimental animals and fed with standard feed (Beijing Vital River Laboratory Animal Technology Co., Ltd.).
After arriving at the animal facility, the experimental animals needed to acclimatize for at least one week. The mice were observed daily for vital signs, and randomly divided into groups according to their body weights one day before the drug administration. One hour before the electrical stimulation, different dosages of the test compound were orally administered to each group. On the day of the assay, the male CD-1 mice in each group were anesthetized locally at the cornea with 2% lidocaine. Then, silver bipolar electrodes were used to electrically stimulate the cornea of the mice with 18 mA, 60 Hz, a pulse width of 0.6 ms, and a stimulation time of 1 s to induce seizures. Subsequently, the latency of seizures and the duration of limb rigidity in mice after the electrical stimulation were observed, and the protection rate from seizures for each group was statistically analyzed.
(In general: The maximal electroshock test induces tonic seizures with an electrical stimulus.)

Bounds are passed on as bounds.

Sequence of CYP2C9 (P11712 whole entry): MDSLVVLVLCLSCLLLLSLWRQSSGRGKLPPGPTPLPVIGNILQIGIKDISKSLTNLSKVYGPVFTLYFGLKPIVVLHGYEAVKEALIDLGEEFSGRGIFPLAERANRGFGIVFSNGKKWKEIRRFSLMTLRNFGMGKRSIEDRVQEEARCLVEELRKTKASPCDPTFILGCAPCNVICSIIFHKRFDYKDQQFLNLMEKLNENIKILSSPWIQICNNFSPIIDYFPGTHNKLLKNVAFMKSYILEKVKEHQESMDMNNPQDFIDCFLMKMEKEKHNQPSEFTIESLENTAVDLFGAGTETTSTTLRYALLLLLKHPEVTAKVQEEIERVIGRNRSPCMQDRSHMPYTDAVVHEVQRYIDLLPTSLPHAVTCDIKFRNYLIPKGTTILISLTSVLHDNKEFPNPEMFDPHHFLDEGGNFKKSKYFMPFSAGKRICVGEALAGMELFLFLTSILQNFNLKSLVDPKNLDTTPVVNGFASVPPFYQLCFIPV
Sequence of CYP3A4 (P08684 2-503): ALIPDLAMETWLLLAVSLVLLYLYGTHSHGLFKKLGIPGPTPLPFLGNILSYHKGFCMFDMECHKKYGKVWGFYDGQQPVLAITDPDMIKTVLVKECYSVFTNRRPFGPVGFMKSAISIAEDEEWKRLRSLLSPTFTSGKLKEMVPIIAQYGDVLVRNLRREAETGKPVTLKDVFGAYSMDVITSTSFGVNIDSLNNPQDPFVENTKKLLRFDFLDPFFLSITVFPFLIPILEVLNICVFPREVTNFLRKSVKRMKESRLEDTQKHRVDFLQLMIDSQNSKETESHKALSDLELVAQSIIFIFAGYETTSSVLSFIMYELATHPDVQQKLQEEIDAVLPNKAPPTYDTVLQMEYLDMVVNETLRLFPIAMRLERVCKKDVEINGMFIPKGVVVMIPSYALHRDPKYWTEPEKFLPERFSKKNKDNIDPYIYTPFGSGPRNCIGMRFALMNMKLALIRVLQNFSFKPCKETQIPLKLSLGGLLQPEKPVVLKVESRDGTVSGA
T2 sequence (O43526 whole entry): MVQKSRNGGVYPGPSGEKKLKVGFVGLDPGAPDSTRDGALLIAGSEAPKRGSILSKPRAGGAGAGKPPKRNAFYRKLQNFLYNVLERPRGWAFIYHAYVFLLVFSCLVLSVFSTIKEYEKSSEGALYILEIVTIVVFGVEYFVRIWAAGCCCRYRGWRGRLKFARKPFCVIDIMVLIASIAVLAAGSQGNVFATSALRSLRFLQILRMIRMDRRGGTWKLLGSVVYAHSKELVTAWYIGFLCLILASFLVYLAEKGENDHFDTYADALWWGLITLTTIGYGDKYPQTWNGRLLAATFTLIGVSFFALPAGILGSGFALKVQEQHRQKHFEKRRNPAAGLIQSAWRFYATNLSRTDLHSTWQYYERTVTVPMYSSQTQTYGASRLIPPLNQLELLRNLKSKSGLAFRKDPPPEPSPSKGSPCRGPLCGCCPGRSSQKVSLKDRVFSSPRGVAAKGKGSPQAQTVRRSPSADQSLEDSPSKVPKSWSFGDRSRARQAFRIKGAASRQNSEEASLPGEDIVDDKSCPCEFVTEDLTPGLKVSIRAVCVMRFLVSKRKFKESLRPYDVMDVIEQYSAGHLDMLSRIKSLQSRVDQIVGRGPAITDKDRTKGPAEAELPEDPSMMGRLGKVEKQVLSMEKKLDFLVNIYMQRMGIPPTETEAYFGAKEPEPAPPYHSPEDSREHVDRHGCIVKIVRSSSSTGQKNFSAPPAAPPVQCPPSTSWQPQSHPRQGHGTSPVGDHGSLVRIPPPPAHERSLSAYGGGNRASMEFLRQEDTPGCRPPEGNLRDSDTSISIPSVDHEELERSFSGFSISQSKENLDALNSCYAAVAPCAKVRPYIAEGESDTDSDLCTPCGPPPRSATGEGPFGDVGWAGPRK
T2 sequence (O43525 whole entry): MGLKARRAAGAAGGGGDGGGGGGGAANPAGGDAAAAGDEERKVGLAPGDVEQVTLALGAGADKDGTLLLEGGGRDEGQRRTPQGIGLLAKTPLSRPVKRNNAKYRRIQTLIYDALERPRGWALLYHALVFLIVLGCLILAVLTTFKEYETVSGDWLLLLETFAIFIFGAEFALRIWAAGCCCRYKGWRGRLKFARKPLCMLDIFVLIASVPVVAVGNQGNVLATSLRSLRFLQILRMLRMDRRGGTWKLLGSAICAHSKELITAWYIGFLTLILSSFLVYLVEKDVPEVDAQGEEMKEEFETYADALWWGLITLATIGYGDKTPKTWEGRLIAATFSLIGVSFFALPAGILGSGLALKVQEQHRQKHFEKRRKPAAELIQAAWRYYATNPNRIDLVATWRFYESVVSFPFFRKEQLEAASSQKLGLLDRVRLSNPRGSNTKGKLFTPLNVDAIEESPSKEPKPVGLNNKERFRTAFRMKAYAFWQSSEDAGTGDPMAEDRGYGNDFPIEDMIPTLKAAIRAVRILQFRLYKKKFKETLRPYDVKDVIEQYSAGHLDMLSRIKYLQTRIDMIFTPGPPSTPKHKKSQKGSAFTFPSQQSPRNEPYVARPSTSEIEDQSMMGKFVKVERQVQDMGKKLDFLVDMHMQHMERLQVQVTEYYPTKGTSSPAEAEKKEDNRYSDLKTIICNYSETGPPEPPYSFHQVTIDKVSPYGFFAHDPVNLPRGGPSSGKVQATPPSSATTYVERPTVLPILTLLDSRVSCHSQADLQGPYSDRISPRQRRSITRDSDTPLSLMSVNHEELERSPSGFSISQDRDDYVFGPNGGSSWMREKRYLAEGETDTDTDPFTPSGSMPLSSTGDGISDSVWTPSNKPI
Sequence of CYP2C19 (P33261 whole entry): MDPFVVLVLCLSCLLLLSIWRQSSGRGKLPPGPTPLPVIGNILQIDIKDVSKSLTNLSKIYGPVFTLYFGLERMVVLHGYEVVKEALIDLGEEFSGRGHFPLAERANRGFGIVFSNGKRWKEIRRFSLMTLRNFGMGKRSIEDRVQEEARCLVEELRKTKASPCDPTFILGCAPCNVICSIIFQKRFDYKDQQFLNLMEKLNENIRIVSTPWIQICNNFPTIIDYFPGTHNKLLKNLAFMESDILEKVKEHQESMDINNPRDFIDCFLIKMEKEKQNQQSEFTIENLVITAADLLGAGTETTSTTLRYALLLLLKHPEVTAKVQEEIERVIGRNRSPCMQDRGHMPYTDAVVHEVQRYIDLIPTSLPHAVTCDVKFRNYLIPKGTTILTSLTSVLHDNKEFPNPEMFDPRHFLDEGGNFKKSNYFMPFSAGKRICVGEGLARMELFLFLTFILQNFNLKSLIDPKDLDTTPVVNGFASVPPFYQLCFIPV
Sequence of CYP2D6 (P10635 whole entry): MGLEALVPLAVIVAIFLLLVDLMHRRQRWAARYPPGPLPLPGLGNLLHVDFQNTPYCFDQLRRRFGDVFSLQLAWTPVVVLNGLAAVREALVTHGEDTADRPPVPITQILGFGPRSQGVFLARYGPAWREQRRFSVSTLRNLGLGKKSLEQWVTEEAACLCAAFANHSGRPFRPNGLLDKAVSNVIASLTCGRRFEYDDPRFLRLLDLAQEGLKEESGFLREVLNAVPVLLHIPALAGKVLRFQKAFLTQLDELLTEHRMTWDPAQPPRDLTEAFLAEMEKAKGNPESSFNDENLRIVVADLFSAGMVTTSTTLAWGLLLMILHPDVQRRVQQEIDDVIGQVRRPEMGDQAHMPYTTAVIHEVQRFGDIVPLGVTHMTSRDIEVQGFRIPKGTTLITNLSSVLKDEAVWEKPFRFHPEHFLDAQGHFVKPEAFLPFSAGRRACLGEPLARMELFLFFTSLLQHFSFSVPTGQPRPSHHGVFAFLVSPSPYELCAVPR

Take `Cc1c(NC(=O)CC2(C)CC2)n(C)c2cc(Nc3ccc(F)cc3)ccc12` [Compound 12]: the IC50 (commonly the point on the concentration scale where inhibition reaches its midpoint) in data set [1] was determined as 15 µM; in data set [2], 13 µM; in data set [3], 11 µM; in data set [4], 37 µM; in data set [5] it was 20 µM. In addition, a half-maximal response in data set [6] (EC50) required 0.8 µM.
For the compound `Cc1c(NC(=O)CC(C)(C)C)n(C)c2cc(Nc3ncc(F)cc3F)ccc12` [Compound 26], the 50% inhibitory concentration (IC50) was more than 50 µM in data set [1]; 44 µM in data set [2]; more than 50 µM in data set [3]; more than 50 µM in data set [4]; 19 µM in data set [5]. Further, the EC50 (in general, the concentration at which the effect is half-maximal) in data set [6] was 0.4 µM.
For the compound `Cc1cc(F)cnc1Nc1ccc2c(C)c(NC(=O)CC(C)(C)C)n(C)c2c1` [Compound 31], the “Seizure incidence (%)” value in data set [7] came out at 16.7%. Further, the IC50 in data set [1], in data set [2], in data set [3], in data set [4] and in data set [5] was more than 50 µM throughout.
For `Cc1c(NC(=O)CC2(C)CC2)n(C)c2cc(Nc3ncc(F)cc3F)ccc12` [Compound 35], the IC50 in data set [1], in data set [2], in data set [3], in data set [4] and in data set [5] was more than 50 µM in each case. The response in data set [6] was half-maximal at 0.49 µM (EC50).

These data come from patent EP4810483A1, “6- AND 5-HETEROARYL DERIVATIVES AND USE THEREOF” (CMS Research & Development Pte. Ltd., priority 2023, dated 2025).
